In patent publication US9725414B2, “Fungicidal N-bicycloalkyl and N-tricycloalkyl pyrazole-4-(thio)carboxamide derivatives” (priority 2011, dated 2017):

How the values were obtained:
[1] = tested on: Sphaerotheca fuliginea; assay: Example A: in vivo preventive test on Sphaerotheca fuliginea (cucumber); settings: 500 ppm of active ingredient, evaluated 7 days after inoculation
Procedure: In Vivo Preventive Test on Sphaerotheca fuliginea (Cucumber) Solvent: 49 parts by weight of N,N-dimethylformamide Emulsifier: 1 part by weight of alkylarylpolyglycolether To produce a suitable preparation of active compound, 1 part by weight of active compound is mixed with the stated amounts of solvent and emulsifier, and the concentrate is diluted with water to the desired concentration. To test for preventive activity, young plants are sprayed with the preparation of active compound at the stated rate of application. One day after this treatment, the plants are inoculated with an aqueous spore suspension of Sphaerotheca fuliginea. Then the plants are placed in a greenhouse at approximately 23° C. and a relative atmospheric humidity of approximately 70%.

[2] = tested on: Alternaria solani; assay: Example C: in vivo preventive test on Alternaria solani (tomato); settings: 500 ppm of active ingredient, evaluated 7 days after inoculation
Method in brief: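 Young tomato plants sprayed preventively with compound formulated in DMF/emulsifier and diluted with water, then inoculated one day later with Alternaria solani spores. Plants were held one day at about 22° C, 100% humidity, then at about 20° C, 96% humidity.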

[3] = tested on: Pyrenophora teres; assay: Example E: in vivo preventive test on Pyrenophora teres (barley), DMF/emulsifier preparation; settings: 500 ppm of active ingredient, evaluated 7-9 days after inoculation
Method in brief: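 Young barley plants sprayed preventively with compound formulated in DMF/alkylaryl polyglycol ether emulsifier and diluted in water. One day later inoculated with aqueous Pyrenophora teres spore suspension, then held 48 h at 22 °C and 100% relative humidity.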

Compound	Efficacy [1] [%]	Efficacy [2] [%]	Efficacy [3] [%]
Cn1nc(C(F)F)c(C(=O)N(CC2CC3CCC2C3)C2CC2)c1F (stereo not drawn) [Example 71]	100	100	100
CC(C1CC2CCC1C2)N(C(=O)c1c(C(F)F)nn(C)c1F)C1CC1 (stereo not drawn) [Example 93]	100	95	100
